Data set [1] relates to Trypanosoma brucei rhodesiense. Description: Antitrypanosomal activity against Trypanosoma rhodesiense infected in mouse assessed as increase in survival time by 30 days at 2.5 mg/kg relative to control. Format: functional.
Data set [2] concerns Trypanosoma brucei rhodesiense. Description: Antitrypanosomal activity against Trypanosoma rhodesiense infected in mouse assessed as increase in survival time by 30 days at 10 mg/kg relative to control. It counts as functional.
The subject of data set [3] is Trypanosoma brucei rhodesiense. Briefly: Antitrypanosomal activity against Trypanosoma rhodesiense infected in mouse assessed as increase in survival time by 30 days at 80 mg/kg relative to control. It counts as functional.
Data set [4] relates to Trypanosoma brucei rhodesiense. Description: Antitrypanosomal activity against Trypanosoma rhodesiense infected in mouse assessed as increase in survival time by 30 days at 640 mg/kg relative to control. Format: functional.
In data set [5] the test system is Trypanosoma brucei rhodesiense. Briefly: Antitrypanosomal activity against Trypanosoma rhodesiense infected in mouse assessed as increase in survival time by 30 days at 160 mg/kg relative to control. Format: functional.
Data set [6] deals with Trypanosoma brucei rhodesiense. Briefly: Antitrypanosomal activity against Trypanosoma rhodesiense infected in mouse assessed as increase in survival time by 30 days at 5 mg/kg relative to control. It counts as functional.
For data set [7], the system named is Trypanosoma brucei rhodesiense. Briefly: Antitrypanosomal activity against Trypanosoma rhodesiense infected in mouse assessed as increase in survival time by 30 days at 320 mg/kg relative to control. Format: functional.
The subject of data set [8] is Trypanosoma brucei rhodesiense. Briefly: Antitrypanosomal activity against Trypanosoma rhodesiense infected in mouse assessed as increase in survival time by 30 days at 40 mg/kg relative to control. Format: functional.
For data set [9], the system named is Trypanosoma brucei rhodesiense. Description: Antitrypanosomal activity against Trypanosoma rhodesiense infected in mouse assessed as increase in survival time by 30 days at 20 mg/kg relative to control. Format: functional.
Data set [10] relates to Plasmodium berghei. Description: Antimalarial activity against Plasmodium berghei infected in mouse. Format: functional, organism-based.
In data set [11] the test system is Trypanosoma brucei rhodesiense. Description: Antitrypanosomal activity against Trypanosoma rhodesiense infected in mouse assessed as increase in mean survival time at 40 mg/kg relative to control. It counts as functional.
Data set [12] concerns Trypanosoma brucei rhodesiense. Description: Antitrypanosomal activity against Trypanosoma rhodesiense infected in mouse assessed as increase in mean survival time at 80 mg/kg relative to control. It counts as functional.
The test system of data set [13] is Trypanosoma brucei rhodesiense. Briefly: Antitrypanosomal activity against Trypanosoma rhodesiense infected in mouse assessed as increase in mean survival time at 20 mg/kg relative to control. It counts as functional.
Data set [14] concerns Mus musculus. Description: Acute toxicity in mouse infected with Trypanosoma rhodesiense assessed as death at 640 mg/kg. Format: organism-based. The arrangement: dose 640 mg/kg. The note with it: in vivo.
Data set [15] has as its system Mus musculus. Briefly: Acute toxicity in mouse infected with Trypanosoma rhodesiense assessed as death at 320 mg/kg. Format: organism-based. Also noted: dose 320 mg/kg. The note with it: in vivo.
The test system of data set [16] is Trypanosoma brucei rhodesiense. Description: Antitrypanosomal activity against Trypanosoma rhodesiense infected in mouse assessed as increase in mean survival time at 160 mg/kg relative to control. Format: functional.

SMILES strings stand for the structures. The source made the active and inactive calls. The calls are words filed in the database; no cut-off is given here.

With `N=C(N)c1ccc(OCCCCCOc2ccc(C(=N)N)cc2)cc1` [PENTAMIDINE], the MST in data set [1] is 4 days; in data set [2] it was 5 days; in data set [3] it was 5 days; in [4], 5 days; in data set [5], 5 days; in data set [6] it was 5 days. For the same compound, the MST in data set [7], in [8] and in data set [9] was 5 days each time.
For the compound `Cn1c(-c2ccc([C+]3NCCN3)cc2)ccc1-c1ccc([C+]2NCCN2)cc1.[Cl-].[Cl-]`, the MST was 2 days in data set [2]; 4 days in data set [3]; 5 days in data set [5]; 4 days in [8]; 3 days in data set [9]. Also, in data set [10], the outcome was inactive.
For `CC1CN[C+](c2ccc(-c3ccc(-c4ccc([C+]5NCC(C)N5)cc4)s3)cc2)N1.[Cl-].[Cl-]` (stereo not drawn), the MST in data set [4] was found to be 4 days; in data set [5], 2 days; in data set [7], 4 days; in data set [11] it was 1.2 days; in data set [12], 3 days; in data set [13], 1 days. In addition, the outcome in [10] was inactive.
As for `CC1CN[C+](c2ccc(-c3ccc(-c4ccc([C+]5NCC(C)N5)cc4)n3C)cc2)N1.[Cl-].[Cl-]` (stereo not drawn), the MST is 5 days in [3]; 5 days in [4]; 5 days in data set [5]; 5 days in data set [7]; 4 days in [8]; 3 days in data set [9]. Moreover, the result in [10] was inactive.
As for `Cn1c(-c2ccc([C+]3NCCCN3)cc2)ccc1-c1ccc([C+]2NCCCN2)cc1.[Cl-].[Cl-]`, the MST in data set [2] came out at 2 days; in data set [3], 5 days; in [5] it was 3 days; in [8], 5 days; in data set [9], 3 days. For the same compound, the Activity result in [14] and in data set [15] was “Toxic” in each case. In addition, the outcome in [10] was inactive.
For the compound `[Cl-].[Cl-].c1cc([C+]2NCCCN2)ccc1-c1ccc(-c2ccc([C+]3NCCCN3)cc2)s1`, the MST in [2] came out at 2 days; in data set [3], 4 days; in [4] it was 5 days; in [5], 4 days; in [7], 5 days; in [8] it was 4 days. Also, the MST in [9] worked out at 3 days. Moreover, in data set [10], the result was inactive.
Turning to `N=C(N)c1ccc(/C=C/c2ccc(C(=N)N)cc2O)cc1` [HYDROXYSTILBAMIDINE], the MST in [1], in [2], in data set [3], in [4], in [5] and in data set [6] was 5 days each time. The MST in data set [7], in [8] and in data set [9] was 5 days throughout.
As to `Cl.Cl.N=C(N)c1ccc(-c2ccc(-c3ccc(C(=N)N)cc3)s2)cc1`, the MST in data set [1] was 3 days; in [2], 5 days; in data set [3], 5 days; in data set [5], 5 days; in data set [6] it was 4 days; in [8], 5 days. Also, in data set [9], the MST stood at 5 days. Further, the outcome in data set [10] was inactive.
Turning to `[Cl-].[Cl-].c1cc([C+]2NCCN2)ccc1-c1ccc(-c2ccc([C+]3NCCN3)cc2)s1`, the values for the MST in data set [4], in [7] and in data set [16] were 3 days, 2 days and 1.6 days, respectively. Besides, the outcome in data set [10] was inactive.
`N=C(N)c1ccc(-c2ccc(-c3ccc(C(=N)N)cc3)o2)cc1` [FURAMIDINE]: the MST in data set [1] worked out at 4 days; in data set [2], 5 days; in data set [3], 5 days; in data set [4], 5 days; in data set [5], 5 days; in [6], 5 days. The MST in data set [7], in data set [8] and in data set [9] was 5 days throughout.
As for `Cn1c(-c2ccc([C+](N)N)cc2)ccc1-c1ccc([C+](N)N)cc1.[Cl-].[Cl-]`, the MST turned out to be 2 days in [1]; 5 days in data set [2]; 5 days in data set [3]; 5 days in [5]; 4 days in data set [6]; 5 days in data set [7]. The MST in data set [8] and in data set [9] was 5 days in each case. The result in data set [10] was inactive.
As for `N=C(N)c1ccc(/C=C/c2ccc(C(=N)N)cc2)cc1` [STILBAMIDINE], the MST in [1], in data set [2], in data set [3], in [4], in data set [5] and in data set [6] was 5 days in each case. Further, the MST in [7], in data set [8] and in [9] was 5 days throughout.

Values taken from ChEMBL document CHEMBL3272241, “Synthesis and antiprotozoal activity of 2,5-bis(4-guanylphenyl)thiophenes and -pyrroles” (J Med Chem, 1977).
